Where “and” joins values, the source holds several entries; their conditions need not be identical. Equal entries are not always repeated.
What was measured:
[1] = tested on: Labrador Retrievers; assay: Heart rate and body temperature recovery following 15 mile run, Example 1; format: in vivo, dog; settings: Ex.1, 250 mg/d; for Dog body temperature after run / Heartrate after run / Temperature before run / Heartrate before run: mean ± SEM; for Temperature before run / Heartrate before run: before 15 mile run
Description: Each test dog wore an Actical activity monitor from Philips Respironics on a collar for the short higher intensity runs and also wore an Actical activity monitor for the weekly longer endurance runs. The activity data was downloaded into spread sheets along with each dogs identity. Twenty four hours after each long run during the 13 wk running program each of the dogs were scored by kennel staff for soreness or any type of lameness The exercise program was decreased in a tapering program during wk 11 and 12 to allow the dogs to rest for the final long run completed on wk 13. Pre-run serum samples from each test dog was taken 24 hr before the last endurance run. The heart rate and basal body temperature was determined for each test dog prior to the last long endurance run. Each performance dog also wore the Actical activity monitor during the last endurance run. The dogs were put through a 15 mile run that included mud, water, tall grass, and swimming. The dogs were timed when they completed the course. The dogs were encouraged by kennel staff that rode along in a 4 wheel all terrain type vehicle during all of the endurance runs. […] Immediately following the 15 mile endurance run, each dog was placed in a kennel and evaluated for recovery time for body temperature (every 15 minutes for 2 hr) and heart rate (every 2 minutes for 14 minutes). Twenty four hours after test dogs ran the last 15 endurance run, post-run serum samples were taken to evaluate biomarkers for muscle damage and antioxidant status. Each test dog was also scanned with the GE Prodigy DEXA to determine body composition change that occurred during the course of the 13 wk study. The dogs were timed during the last 15 mile run at the end of the study. The body temperature and heart rate for each dog was determined just prior to the long 15 mile run. The heart rate measurements were determined manually and body temperature was determined by using a rectal thermometer. Each staff member was responsible for determining the time required to complete the run for one of the test dogs in each set. Each staff member was also responsible for determining the heart rate and body temperature of their specific assigned dog immediately upon their return after the run. The heart rate was determined every 2 minutes for a fourteen minute period following the last long run and the body temperature was determined every 15 minute for a two hour period after completing the long run. The heart rate and body temperature was determined both before and after to evaluate the fitness and time required after run to reach basal HR and body temperatures.

[2] = tested on: Thiobarbituric acid reactive substances (TBARS); assay: Serum TBARS, Example 2 part one; format: in vivo, dog; settings: for TBARS level, serum: Ex.2 part one, 250 mg/d; for TBARS: serum
Method: Twenty-four hours after test dogs ran the last 15 mile endurance run, serum samples were taken to evaluate biomarkers for muscle damage and antioxidant status. Blood samples were taken 1) just prior to the beginning of the study; 2) 1 day prior to running the final 15 mile run on the 14th week; 3) 1 hour immediately following the 15 mile run; and 4) 24 hours following the final 15 mile run. After a blood sample was drawn, it was allowed to clot for 30 minutes at 25° C. before being centrifuged for 15 minutes at 2000 g at 4° C. Serum was aliquoted into 0.65 mL microcentrifuge tubes and stored at −80° C. until being assayed at the end of the study for creatine kinase, canine myoglobin, thiobarbituric acid reactive substances (TBARS), and total antioxidant capacity (TAC) using the commercially available kits described in Example 1.

[3] = 0 min after 15 mile run, both sexes
[4] = 0 min after 15 mile run, females

Q: With `C[N+](C)(C)C[C@H](O)CC(=O)[O-]` [L-carnitine] as the molecule, how does the “Dog body temperature after run” value [1, 3] read?
A: Its value is 103.7 ± 0.3 n = 19 ° F.

Q: What about the Heartrate after run [1, 3] of the same molecule?
A: Its Heartrate after run is 159 and 159 ± 4 n = 16.

Q: What about the “Dog body temperature after run” value [1, 4] of the same molecule?
A: The value was 103.6 ± 0.5 n = 9 ° F.

Q: What about the Heartrate after run [1, 4] of the same molecule?
A: Its Heartrate after run is 155 ± 5 n = 8.

Q: What about the “Dog body temperature after run” value ([1]; 0 min after 15 mile run, males) of the same molecule?
A: The value was 103.8 ± 0.3 n = 10 ° F.

Q: And the Heartrate after run ([1]; 0 min after 15 mile run, males)?
A: The Heartrate after run was 164 ± 6 n = 11.

Q: And the Heartrate after run ([1]; 2 min after 15 mile run, both sexes)?
A: Its Heartrate after run is 146 ± 5 n = 16.

Q: And the Heartrate after run ([1]; 2 min after 15 mile run, females)?
A: Its Heartrate after run is 139 ± 6 n = 8.

Q: What about the Heartrate after run ([1]; 2 min after 15 mile run, males) of the same molecule?
A: Its Heartrate after run is 149 ± 6 n = 11.

Q: What about the Heartrate after run ([1]; 4 min after 15 mile run, both sexes) of the same molecule?
A: The Heartrate after run was 131 ± 5 n = 16.

Q: And the Heartrate after run ([1]; 4 min after 15 mile run, females)?
A: Its Heartrate after run is 123 ± 6 n = 8.

Q: What about the Heartrate after run ([1]; 4 min after 15 mile run, males) of the same molecule?
A: Its Heartrate after run is 143 ± 8 n = 11.

Q: And the Heartrate after run ([1]; 6 min after 15 mile run, both sexes)?
A: The Heartrate after run was 123 ± 5 n = 16.

Q: What about the Heartrate after run ([1]; 6 min after 15 mile run, females) of the same molecule?
A: Its Heartrate after run is 120 ± 6 n = 8.

Q: What about the Heartrate after run ([1]; 6 min after 15 mile run, males) of the same molecule?
A: Its Heartrate after run is 131 ± 6 n = 11.

Q: What about the Heartrate after run ([1]; 8 min after 15 mile run, both sexes) of the same molecule?
A: Its Heartrate after run is 114 ± 4 n = 16.

Q: And the Heartrate after run ([1]; 8 min after 15 mile run, females)?
A: Its Heartrate after run is 111 ± 6 n = 8.

Q: And the Heartrate after run ([1]; 8 min after 15 mile run, males)?
A: The Heartrate after run was 125 ± 6 n = 11.

Q: What about the Heartrate after run ([1]; 10 min after 15 mile run, both sexes) of the same molecule?
A: Its Heartrate after run is 113 ± 5 n = 16.

Q: And the Heartrate after run ([1]; 10 min after 15 mile run, females)?
A: Its Heartrate after run is 109 ± 5 n = 8.

Q: What about the Heartrate after run ([1]; 10 min after 15 mile run, males) of the same molecule?
A: The Heartrate after run was 120 ± 6 n = 11.

Q: And the Heartrate after run ([1]; 12 min after 15 mile run, both sexes)?
A: The Heartrate after run was 107 ± 4 n = 16.

Q: And the Heartrate after run ([1]; 12 min after 15 mile run, females)?
A: Its Heartrate after run is 107 ± 7 n = 7.

Q: What about the Heartrate after run ([1]; 12 min after 15 mile run, males) of the same molecule?
A: The Heartrate after run was 112 ± 5 n = 11.

Q: And the Heartrate after run ([1]; 14 min after 15 mile run, both sexes)?
A: Its Heartrate after run is 101 ± 4 n = 16.

Q: What about the Heartrate after run ([1]; 14 min after 15 mile run, females) of the same molecule?
A: The Heartrate after run was 103 ± 7 n = 7.

Q: What about the Heartrate after run ([1]; 14 min after 15 mile run, males) of the same molecule?
A: The Heartrate after run was 102 ± 5 n = 10.

Q: What about the “Dog body temperature after run” value ([1]; 15 min after 15 mile run, both sexes) of the same molecule?
A: The value was 102.6 ± 0.2 n = 20 ° F.

Q: What about the “Dog body temperature after run” value ([1]; 15 min after 15 mile run, females) of the same molecule?
A: Its value is 102.6 ± 0.4 n = 9 ° F.

Q: What about the “Dog body temperature after run” value ([1]; 15 min after 15 mile run, males) of the same molecule?
A: Its value is 102.5 ± 0.2 n = 11 ° F.

Q: What about the “Dog body temperature after run” value ([1]; 30 min after 15 mile run, both sexes) of the same molecule?
A: The value was 101.6 ± 0.1 n = 20 ° F.

Q: And the “Dog body temperature after run” value ([1]; 30 min after 15 mile run, females)?
A: Its value is 101.3 ± 0.2 n = 9 ° F.

Q: And the “Dog body temperature after run” value ([1]; 30 min after 15 mile run, males)?
A: Its value is 101.9 ± 0.1 n = 11 ° F.

Q: And the “Dog body temperature after run” value ([1]; 45 min after 15 mile run, both sexes)?
A: Its value is 101.1 ± 0.1 n = 20 ° F.

Q: And the “Dog body temperature after run” value ([1]; 45 min after 15 mile run, females)?
A: The value was 101 ± 0.2 n = 9 ° F.

Q: And the “Dog body temperature after run” value ([1]; 45 min after 15 mile run, males)?
A: Its value is 101.1 ± 0.1 n = 11 ° F.

Q: What about the “Dog body temperature after run” value ([1]; 60 min after 15 mile run, both sexes) of the same molecule?
A: Its value is 100.9 ± 0.2 n = 20 ° F.

Q: And the “Dog body temperature after run” value ([1]; 60 min after 15 mile run, females)?
A: The value was 100.8 ± 0.3 n = 9 ° F.

Q: What about the “Dog body temperature after run” value ([1]; 60 min after 15 mile run, males) of the same molecule?
A: Its value is 101 ± 0.2 n = 11 ° F.

Q: And the “Dog body temperature after run” value ([1]; 75 min after 15 mile run, both sexes)?
A: The value was 100.7 ± 0.2 n = 19 ° F.

Q: And the “Dog body temperature after run” value ([1]; 75 min after 15 mile run, females)?
A: The value was 100.7 ± 0.3 n = 8 ° F.

Q: And the “Dog body temperature after run” value ([1]; 75 min after 15 mile run, males)?
A: Its value is 100.7 ± 0.2 n = 11 ° F.

Q: What about the “Dog body temperature after run” value ([1]; 90 min after 15 mile run, both sexes) of the same molecule?
A: Its value is 100.7 ± 0.2 n = 20 ° F.

Q: And the “Dog body temperature after run” value ([1]; 90 min after 15 mile run, females)?
A: Its value is 100.6 ± 0.3 n = 9 ° F.

Q: And the “Dog body temperature after run” value ([1]; 90 min after 15 mile run, males)?
A: Its value is 100.8 ± 0.2 n = 11 ° F.

Q: And the “Dog body temperature after run” value ([1]; 105 min after 15 mile run, both sexes)?
A: Its value is 100.4 ± 0.2 n = 19 ° F.

Q: What about the “Dog body temperature after run” value ([1]; 105 min after 15 mile run, females) of the same molecule?
A: The value was 100.2 ± 0.4 n = 8 ° F.

Q: What about the “Dog body temperature after run” value ([1]; 105 min after 15 mile run, males) of the same molecule?
A: Its value is 100.5 ± 0.2 n = 11 ° F.

Q: And the “Dog body temperature after run” value ([1]; 120 min after 15 mile run, both sexes)?
A: The value was 100.7 ± 0.2 n = 14 ° F.

Q: And the “Dog body temperature after run” value ([1]; 120 min after 15 mile run, females)?
A: The value was 100.7 ± 0.4 n = 4 ° F.

Q: What about the “Dog body temperature after run” value ([1]; 120 min after 15 mile run, males) of the same molecule?
A: The value was 100.8 ± 0.2 n = 10 ° F.

Q: What about the “Time to get heart rate back to basal levels” value ([1]; after 15 mile run, both treatments required this time) of the same molecule?
A: Its value is “approximately 14 minutes”.

Q: And the Temperature before run ([1]; both sexes)?
A: The Temperature before run was 101.3 ± 0.2 n = 20 ° F.

Q: What about the Heartrate before run ([1]; females) of the same molecule?
A: Its Heartrate before run is 89 ± 3 n = 9.

Q: And the Temperature before run ([1]; females)?
A: Its Temperature before run is 101.0 ± 0.1 n = 9 ° F.

Q: What about the Heartrate before run ([1]; males) of the same molecule?
A: The Heartrate before run was 89 ± 3 n = 11.

Q: And the Temperature before run ([1]; males)?
A: Its Temperature before run is 101.7 ± 0.4 n = 11 ° F.

Q: What about the “Heart rate and body temperature recovery vs control” value ([1]; following the final long run) of the same molecule?
A: Its value is “not different”.

Q: And the “Time back to pre-run core temperature” value ([1]; males, following 15 mile run, both groups)?
A: The value was 30 to 45 min.

Q: And the “TBARS level, serum” value ([2]; post-run 1 hr, MDA)?
A: Its value is 16.45 µM.

Q: And the “TBARS level, serum” value ([2]; prior to the 15 mile endurance run)?
A: The value was 15.36 μM malondialdehyde (MDA).

Q: What about the TBARS ([2]; FEMALES, Baseline) of the same molecule?
A: The TBARS was 13.03 ± 1.29 μM MDA.

Q: What about the TBARS ([2]; FEMALES, Post-Run 1 Hr) of the same molecule?
A: Its TBARS is 17.44 ± 2.26 μM MDA.

Q: What about the TBARS ([2]; FEMALES, Post-Run 24 Hr) of the same molecule?
A: The TBARS was 26.01 ± 3.09 μM MDA.

Q: And the TBARS ([2]; FEMALES, Pre-Run)?
A: Its TBARS is 16.68 ± 2.16 μM MDA.

Q: What about the TBARS ([2]; MALES, Baseline) of the same molecule?
A: Its TBARS is 14.51 ± 1.38 μM MDA.

Q: What about the TBARS ([2]; MALES, Post-Run 1 Hr) of the same molecule?
A: The TBARS was 15.46 ± 1.79 μM MDA.

Q: And the TBARS ([2]; MALES, Post-Run 24 Hr)?
A: Its TBARS is 19.62 ± 2.38 μM MDA.

Q: And the TBARS ([2]; MALES, Pre-Run)?
A: The TBARS was 14.03 ± 2.24 μM MDA.

Q: What about the TBARS ([2]; Whole Groups, Baseline) of the same molecule?
A: The TBARS was 13.77 ± 0.94 μM MDA.

Q: What about the TBARS ([2]; Whole Groups, Post-Run 1 Hr, Post-Run 1 Hr) of the same molecule?
A: Its TBARS is 16.45 ± 1.43 μM MDA.

Q: And the TBARS ([2]; Whole Groups, Post-Run 24 Hr, Post-Run 24 Hr)?
A: The TBARS was 22.81 ± 2.01 μM MDA.

Q: What about the TBARS ([2]; Whole Groups, Pre-Run) of the same molecule?
A: Its TBARS is 15.36 ± 1.55 μM MDA.
